Laboratory results reported in patent publication EP0523356B1, “Burst-test” (Orpegen Medizinisch-Molekularbiologische …, priority 1991, dated 1993).

System: Granulozyten
Experiment: Oxidative burst test in heparinised whole blood (dihydrorhodamine 123, flow cytometry)
Assay type: cell-based, menschlichen
Conditions: Erwartungswerte, 10 + 10 Minuten Inkubation at 37°C, heparinised whole blood 100 µl
Description: Frisch entnommenes, heparinisiertes Vollblut wird gemixt (Vortex) und auf dem Boden eines 5 ml-Röhrchens aliquotiert, wobei pro Ansatz 100 µl verwendet werden. Durch EDTA oder Citrat stabilisiertes Vollblut ist für das Verfahren nicht sonderlich geeignet. Die Blutproben werden vor der Zugabe der Bakterien ca. 15 Minuten im Eiswasserbad inkubiert, um auf 0°C abgekühlt zu sein.
Die vorgekühlten E.coli-Bakterien (1 x 10^9 pro ml) werden gut gemixt (Vortex) und 20 µl pro Ansatz zum Vollblut pipettiert ("high control", Röhrchen 1). Gegebenenfalls können 20 µl N-Formyl-Met-Leu-Phe-Gebrauchslösung als "low control" in ein weiteres Röhrchen (Röhrchen 2) gegeben werden (Endkonzentration 10^-6 mol/l). 20 µl Waschlösung (phosphatgepufferte Salzlösung ohne Calcium^2+ und Magnesium^2+ mit 0,02 % EDTA) werden als Negativkontrolle in ein drittes Röhrchen (Röhrchen 3) gegeben.
Alle Röhrchen werden nochmals gemixt (Vortex) und 10 Minuten lang bei 37°C im Wasserbad unter starkem Schütteln inkubiert (bei einer kinetischen Messung können auch längere Inkubationszeiten erforderlich sein).
Nach 10 Minuten erfolgt die Zugabe von 20 µl frisch angesetzter Substratlösung und Mischen (Vortex) (Endkonzentration 0,2 µg Dihydrorhodamin 123 auf 100 µl Körperflüssigkeit). […]

With `CSCC[C@H](NC=O)C(=O)N[C@@H](CC(C)C)C(=O)N[C@@H](Cc1ccccc1)C(=O)O` [N-Formyl-Met-Leu-Phe] the “mittlere Fluoreszenzintensität (4 Dekaden, 1024 Kanäle)” value (green fluorescence (FL1) of the oxidising cells, stimulant: 20 µl E.coli 1 x 10^9 pro ml or N-Formyl-Met-Leu-Phe Endkonzentration 10^-6 mol/l) was 10-100 and the “% oxidierende Granulozyten” value (stimulant: 20 µl E.coli 1 x 10^9 pro ml or N-Formyl-Met-Leu-Phe Endkonzentration 10^-6 mol/l6 mol/l) was 1-5%.
